pIC50, pKi: −log10 of the molar value. Where two headings read alike, the source gives them in different places.
Legend:
[1] = test system: A549 cell line; assay: Proliferation of A549 (CellTiter Glo); type: cell-based; settings: Homo sapiens, A549, 96 h, read-out: IC50 μM (A549 Cell Line)
Procedure, shortened: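 Compound effect on proliferation was read as CellTiter Glo luminescence after 96 h exposure to a 3-fold dilution series (≤0.25% DMSO). A549 cells, which carry activating K-Ras, were plated at 1,000/well one day before dosing. IC50, relative IC50 and maximal inhibition were fitted from % inhibition versus DMSO control.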

[2] = test system: Mino (Lymphoma); assay: Proliferation of Mino; type: cell-based; settings: for pIC50: Homo sapiens, MINO, read-out: IC50 Mino (Lymphoma)
Procedure, shortened: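 Luminescent ATP read-out (CellTiter Glo) after 96 h compound exposure gave % inhibition relative to DMSO-treated cells, from which IC50 was fitted. Seeding densities were line-specific, from 800 to 10000 cells/well. Potency across batches was normalised to reference compound K101.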

[3] = test system: KP-4 (Pancreatic); assay: Proliferation of KP-4; type: cell-based; settings: read-out: IC50 KP-4 (Pancreatic)
Procedure: (§1) The diterpenoid compounds were tested in A549, a non-small cell lung cancer cell line harboring a K-Ras activating mutation. Briefly, A549 cells at a density of 1,000 cells/well were seeded in 96-well plates and incubated at 37° C. for 24 hours. A series of different concentrations of compound stocks (500×) were prepared by 3-fold serial dilution in DMSO. These compounds were further diluted in culture media and then added to cells so that the final DMSO concentration was not exceeding 0.25%. After 96 hours of incubation, 50 μL of CellTiter Glo reagent (Promega) was added to each well and luminescence was measured after 10 minutes using EnVision (PerkinElmer). Luminescence from cells treated with DMSO alone was set as Max and % of inhibition was calculated as follows: Inhibition %=(Max-Sample value)/Max×100. Data was analyzed using XL-fit software (ID Business Solutions Ltd.) and IC50, relative IC50, and % of top inhibition was calculated. Some of the compounds in this disclosure were very potent in blocking proliferation of A549 lung cancer cells at low nM range. In addition, potency of inhibiting A549 proliferation correlated well with its binding affinity to PKCs for this series of compounds. In other words, higher affinity binders had stronger inhibitory effects on A549 proliferation. This further support the notion that activation, rather than inhibition, of certain PKC isoforms is required to block proliferation of cancer cells, some of which may harbor K-Ras mutations. This is in sharp contrast to previous literature and common belief that inhibition of PKC is necessary to block cancer cell growth (Kang, 2014, New Journal of Science, 2014:1-36). Data presented here is in agreement with recent findings that many loss-of-function but not gain-of-function mutations of PKC isoforms have been identified in many human cancers (Antal et al., 2015, Cell, 160:489-502).
(§2) The compounds in this disclosure were tested for their potency in blocking proliferation of a few other cancer cells lines, including K-Ras mutant pancreatic cell lines Panc2.13 and KP-4, leukemia cell line HL-60, and lymphoma cell lines Namalwa and Mino. Similar procedures as in Example 67 were followed. Initial cell numbers seeded in 96-well plates were different for different cell lines: 3000 cells/well for Panc2.13; 800-1000 cells/well for KP-4; 5000 cells/well for HL-60; 5000-10000 cells/well for Namalwa and Mino. A ratio of (IC50 of K101)/(IC50 of compound) (data in parenthesis in Table 5) was used to normalize the compound potency from different assay batches to a common comparator K101.

[4] = test system: PANC1 cells; assay: Sphere formation assay; type: cell-based; settings: Homo sapiens, PANC-1, read-out: concentration exhibiting at least 50% inhibition on the sphere forming efficiency
Procedure: A group of diterpenoid compounds of the present disclosure were tested to assess their effects on blocking formation of spheres from cancer cell lines such as PANC1, a K-Ras mutant pancreatic cell line. Briefly, PANC1 cells were harvested, re-suspended as single cell suspensions, counted and seeded into Ultra Low Attachment Culture 96-well plate (Corning, Cat #3474) at 100 cells/well in 100 μl of complete media (with 10% FBS) containing 2% Matrigel (Corning, Cat #354234) and DMSO or compounds. Six replicates per condition were seeded. The seeded cells were placed in the 37° C. tissue culture incubator. 10 μl of low serum containing media (with 0.1% FBS) was added to each well every week. Spheres formed after 3-4 weeks were counted. Sphere forming efficiency was expressed as percentage of # of spheres/ # of cells seeded.

[5] = test system: NFκB-driven transcription in HeLa-NFκB luciferase reporter cell line; assay: NFκB luciferase reporter assay; settings: Homo sapiens, HeLa, 16 h, read-out: NFκB-luc HeLa cells EC50 (μM)
Procedure: A HeLa-NFκB luciferase reporter cell line (Wuxi Biology) was used to assess a group of PKC activator compounds for their ability to activate NFκB-driven transcription. […] One set of cells was assayed for luciferase activity (Promega, Cat #E1500) and the other set was assayed to determine the number of viable cells (for cell number normalization) using CellTiter-Glo (CTG) kit (Promega, Cat #G7570) according to manufacture's procedures. Normalized data (luciferase value/CTG value) were analyzed using GraphPad Prism5 to calculate EC50 for each compound (see Table 8).
To assess if activation of PKC is required for these compounds to activate NFκB, several PKC inhibitors including broad-spectrum and conventional PKC inhibitors were tested. In the assay described above, PKC inhibitors were added at the same time as the PKC activator compounds.

[6] = biological target: T1, C1b domain of human PKCε (Homo sapiens, UniProt Q02156); assay: biochemical; type: binding; settings: 3H-PDBu competition
T1 construct: Genes encoding C1b domains of human PKCα, δ, ε, θ, and PKD1 (PKCμ) were synthesized; made in house; host or cells: E. coli BL21(DE3)
Procedure, shortened: (§3)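 Binding is reported as Ki, derived from IC50 using Cheng-Prusoff with the experimentally determined 3H-PDBu Kd of each protein preparation. Tracer displacement from recombinant human GST-C1b (E. coli BL21(DE3)) was read by filter scintillation after 10 min at 37° C plus 20 min on ice.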

[7] = biological target: T2, C1b domain of human PKCδ (Homo sapiens, UniProt Q05655); assay: biochemical; type: binding; settings: 3H-PDBu competition
T2 construct: Genes encoding C1b domains of human PKCα, δ, ε, θ, and PKD1 (PKCμ) were synthesized; made in house; host or cells: E. coli BL21(DE3)
Procedure, shortened: as §3

[8] = test system: Panc2.13 (Pancreatic); assay: Proliferation of Panc2.13; type: cell-based; settings: for pIC50: read-out: IC50 Panc2.13 (Pancreatic)
Procedure: as §1, §2

[9] = test system: Namalwa (Lymphoma); assay: Proliferation of Namalwa; type: cell-based; settings: for pIC50: read-out: IC50 Namalwa (Lymphoma)
Procedure, shortened: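 Proliferation was measured in the K-Ras mutant pancreatic lines and in HL-60 and Namalwa cells. These were plated at densities set per line and left 24 h before compound was added. After 96 h with serially diluted compound, viability was read by CellTiter Glo and IC50 derived.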

[10] = test system: HL-60 (Leukemia); assay: Proliferation of HL-60; type: cell-based; settings: for pIC50: Homo sapiens
[11] = test system: phosphorylation of PKCμ, PKCδ and Erk1/2 in A549 lung cancer cells; assay: Western blot of activation of PKC and downstream target protein in A549 cells; type: cell-based; settings: 30 minutes
Procedure: According to the methods described in patent (WO/2017/083783) A549 lung cancer cells (˜3 million cells) were seeded in 10 cm tissue culture dishes (or ˜1 million cells in 6 cm dish) and grown overnight. Cells were then treated with different drugs at indicated concentrations for 30 minutes. Cell lysate preparation, protein quantitation, SDS-PAGE, and Western blotting procedures are described (WO/2017/083783). β-actin or Vinculin was used as loading controls. Imagequant LAS4000 (GE) was used to scan membranes if secondary antibodies anti-mouse IgG HRP conjugate or anti-rabbit IgG HRP conjugate (dilutions from 1:2000-1:10000) were used. For ProteinSimple Wes system, manufacture's procedure was followed (ProteinSimple 12-230 kDa Wes Separation Module) for sample preparation, loading, running, and data analysis.
Phosphorylation of these sites has been linked to acute activation or catalytic activity of the PKC isoforms and Erk1/2. High level of phosphorylation indicates strong activation.
A subset of the diterpenoid compounds with good binding affinity to novel PKC isoforms and PKCμ was tested at two different concentrations in A549 cells to assess activation of PKCμ, PKCδ, and Erk1/2 by Western blot analysis. In addition to the phospho-specific antibodies described above, an additional phospho-specific antibody P-PKCδ (S299) (Abcam cat #133456) was also used. This antibody has been shown in the literature (Durgan et al., FEBS Lett. 2007, 581(18):3377-81, Novel phosphorylation site markers of protein kinase C delta activation) to be able to detect activation of PKCδ. K-101 (prostratin, 1 μM) was included as reference compounds.

[12] = biological target: T3, C1b domain of human PKCθ (Homo sapiens, UniProt Q04759); assay: biochemical; type: binding; settings: 3H-PDBu competition
T3 construct: Genes encoding C1b domains of human PKCα, δ, ε, θ, and PKD1 (PKCμ) were synthesized; made in house; host or cells: E. coli BL21(DE3)
T3 sequence (Q04759 231-281 limits assumed): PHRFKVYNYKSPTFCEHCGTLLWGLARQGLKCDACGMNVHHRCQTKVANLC
Procedure, shortened: as §3

[13] = HL-60, read-out: IC50 HL-60 (Leukemia)

T1 sequence (Q02156 242-292 limits assumed): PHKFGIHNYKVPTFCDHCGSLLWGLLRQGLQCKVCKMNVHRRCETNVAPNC
T2 sequence (Q05655 230-280 limits assumed): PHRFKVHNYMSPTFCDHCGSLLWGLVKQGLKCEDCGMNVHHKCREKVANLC

Row | Structure (SMILES) | IC50 [1] | ratio (IC50 of K101)/(IC50 of compound) Mino [2] | pIC50 [2] | pIC50 [3] | pIC50 [4] | EC50 [5] | pKi [6] | ratio (IC50 of K101)/(IC50 of compound) Panc2.13 [8] | pIC50 [8] | ratio (IC50 of K101)/(IC50 of compound) Namalwa [9] | ratio (IC50 of K101)/(IC50 of compound) HL-60 [10] | phosphorylation of PKCμ, PKCδ and Erk1/2 ([11]; 3 μM) | other results
1 | CC1=C[C@H]2[C@@]3(O)[C@H](C)C[C@]4(OC(=O)C(C)(C)C)[C@H]([C@@H]3C=C(CO)C[C@]2(O)C1=O)C4(C)C | 0.06 to 0.1 µM | 6.82 | 7.52 to 8.00 | 6.70 to 7.00 | ≥ 6.82 | 0.06 to 0.1 µM | 7.52 to 8.00 | 6.29 | 6.70 to 7.00 | 1.38 | 5.29 |  | pKi [7]: 7.52 to 8.00; pIC50 [9]: 7.22 to 7.52; pIC50 ([10]; HL-60, 96 h, read-out: IC50 HL-60 (Leukemia)): 6.22 to 7.00
2 | CC1=C[C@H]2[C@@]3(O)[C@H](C)C[C@]4(OC(=O)CCc5ccncc5)[C@H]([C@@H]3C=C(CO)C[C@]2(O)C1=O)C4(C)C | 1 to 2 µM |  |  |  |  |  |  |  |  |  |  | induced phosphorylation | 
3 | CC1=C[C@H]2[C@@]3(O)[C@H](C)C[C@]4(OC(=O)CCc5ccccn5)[C@H]([C@@H]3C=C(CO)C[C@]2(O)C1=O)C4(C)C | 0.6 to 1 µM |  |  |  |  |  |  |  |  |  |  | induced phosphorylation | 
4 | CC1=C[C@H]2[C@@]3(O)[C@H](C)C[C@]4(OC(=O)[C@@H](N)CCc5ccccc5)[C@H]([C@@H]3C=C(CO)C[C@]2(O)C1=O)C4(C)C | 0.1 to 0.2 µM | 3.18 | 7.52 to 8.00 | 6.70 to 7.00 |  | 0.1 to 0.2 µM |  | 4.28 | 6.22 to 6.70 | 0.93 | 3.21 |  | pKi [12]: 7.52 to 8.00; pIC50 ([9]; 96 h): 6.22 to 7.00; pIC50 [10, 13]: 6.70 to 7.00
5 | CC1=C[C@H]2[C@@]3(O)[C@H](C)C[C@]4(OC(=O)[C@H](N)Cc5ccccc5)[C@H]([C@@H]3C=C(CO)C[C@]2(O)C1=O)C4(C)C | 1 to 2 µM |  |  |  |  |  |  |  |  |  |  | induced phosphorylation | 
6 | CC1=C[C@H]2[C@@]3(O)[C@H](C)C[C@]4(OC(=O)[C@@H](N)CCC5CCCCC5)[C@H]([C@@H]3C=C(CO)C[C@]2(O)C1=O)C4(C)C | 0.01 to 0.03 µM | 33 | 8.00 to 9.00 | 7.52 to 8.00 | ≥ 6.82 | 0.01 to 0.03 µM | 7.52 to 8.00 | 20.5 | 7.22 to 7.52 | 7.42 | 27.7 |  | pKi [12]: 7.52 to 8.00; pIC50 [9]: 8.00 to 9.00; pIC50 [10, 13]: 7.52 to 8.00
7 | CC1=C[C@H]2[C@@]3(O)[C@H](C)C[C@]4(OC(=O)[C@@H](N)C(C)(C)C)[C@H]([C@@H]3C=C(CO)C[C@]2(O)C1=O)C4(C)C | 0.2 to 0.6 µM |  |  |  | ≥ 5.82 |  | 7.00 to 7.22 |  |  |  |  |  | pKi [7]: 7.52 to 8.00
8 | CC(=O)O[C@@]12C[C@@H](C)[C@@]3(O)[C@@H](C=C(CO)C[C@]4(O)C(=O)C(C)=C[C@@H]34)[C@@H]1C2(C)C [Compound K101, prostratin, reference compound] |  |  |  | 6.22 to 6.70 |  | 0.2 to 0.6 µM |  |  |  |  |  |  | pIC50 ([2]; 96 h): 6.22 to 7.00; pIC50 ([4]; PANC1, spheres counted after 3-4 weeks): 5.26; phosphorylation of PKCμ, PKCδ and Erk1/2 ([11]; 1 μM): induced high levels of phosphorylation; pIC50 ([9]; 96 h): 6.22 to 7.00
